According to publication PMC6858373 (Scientific Reports, 2019):
Where a name gives a salt, the structure may show the parent alone. Read-outs that look alike come from different tables or passages of the source. *1 amine or outer side, *2 acyl side, *3 side chain or, on linkers, in order; H or OH if unused. Where a SMILES comes first, the peptide text is derived from it. Bridges are numbered along the chain shown (N, C = ends). Roman numbers before positions name the chains, in order. [ ]: non-standard residue; d: D form. Actinocin(9to1) = Cc1c2oc3c(C)ccc(C(=O)[*:1])c3nc-2c(C(=O)[*:2])c(N)c1=O; NMeV = CN[C@H](C(=O)O)C(C)C; Sar = CNCC(=O)O

Legend:
[1] = target: full-length P. pyralis luciferase (Photinus pyralis, UniProt P08659, K549A/L550V/N119G/N50D/S548I); assay type: cell-based
[2] = target: T1, FGF14:Nav1.6 C-tail complex (Homo sapiens, UniProt Q92915+Q9UQD0); assay: Split-luciferase complementation assay (LCA) in Clone V double stable HEK293 cells; assay type: cell-based
T1 construct: polymerase chain reaction (PCR) amplification of the FGF14 open reading frame (nt 1–855); C-terminal fragment of Nav1.6 (amino acids 1763–1976) fused with CD4ΔC-tail (amino acids 1–395); expressed in transfected cells

[3] = CC_NCI screening, normalized to on-plate 0.3% DMSO controls
[4] = CC_NCI screening, biological replicate Set 1, normalized to on-plate 0.3% DMSO controls
[5] = CC_NCI screening, biological replicate Set 1, normalized to on-plate 0.3% DMSO controls (n=16 per plate)
[6] = CC_NCI screening, biological replicate Set 2, normalized to on-plate 0.3% DMSO controls
[7] = CC_NCI screening, biological replicate Set 2, normalized to on-plate 0.3% DMSO controls (n=16 per plate)
[8] = average of Set 1 and Set 2, normalized to 0.3% DMSO controls
[9] = CC_NCI screening, full-length luciferase counter-screen luminescence, normalized to on-plate 0.3% DMSO controls
[10] = CC_NCI screening, full-length luciferase counter-screen, normalized to on-plate 0.3% DMSO controls
[11] = CC_NCI screening, LCA luminescence, biological replicate Set 1, normalized to on-plate 0.3% DMSO controls (n=16 per plate)
[12] = CC_NCI screening, LCA luminescence, biological replicate Set 2, normalized to on-plate 0.3% DMSO controls (n=16 per plate)
[13] = CC_NCI screening, LCA, biological replicate Set 1, normalized to on-plate 0.3% DMSO controls
[14] = CC_NCI screening, LCA, biological replicate Set 2, normalized to on-plate 0.3% DMSO controls
[15] = CC_NCI screening, average of Set 1 and Set 2, normalized to 0.3% DMSO controls

T1 sequence (Q92915 1-252 isoform Q92915-2): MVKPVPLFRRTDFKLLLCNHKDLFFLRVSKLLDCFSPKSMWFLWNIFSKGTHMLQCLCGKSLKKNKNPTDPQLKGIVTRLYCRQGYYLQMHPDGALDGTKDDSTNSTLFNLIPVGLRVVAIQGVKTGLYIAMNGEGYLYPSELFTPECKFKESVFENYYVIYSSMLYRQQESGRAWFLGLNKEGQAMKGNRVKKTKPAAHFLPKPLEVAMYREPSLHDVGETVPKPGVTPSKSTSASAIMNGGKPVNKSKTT
T1 sequence (Q9UQD0 1763-1976 limits assumed): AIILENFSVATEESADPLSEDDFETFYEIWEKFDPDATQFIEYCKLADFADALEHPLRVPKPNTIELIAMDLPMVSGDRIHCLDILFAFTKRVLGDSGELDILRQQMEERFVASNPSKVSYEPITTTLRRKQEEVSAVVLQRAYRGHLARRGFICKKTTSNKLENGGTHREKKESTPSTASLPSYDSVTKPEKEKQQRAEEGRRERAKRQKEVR
full-length P. pyralis luciferase, sequence (P08659 whole entry N50D/N119G/S548I/K549A/L550V, looked up): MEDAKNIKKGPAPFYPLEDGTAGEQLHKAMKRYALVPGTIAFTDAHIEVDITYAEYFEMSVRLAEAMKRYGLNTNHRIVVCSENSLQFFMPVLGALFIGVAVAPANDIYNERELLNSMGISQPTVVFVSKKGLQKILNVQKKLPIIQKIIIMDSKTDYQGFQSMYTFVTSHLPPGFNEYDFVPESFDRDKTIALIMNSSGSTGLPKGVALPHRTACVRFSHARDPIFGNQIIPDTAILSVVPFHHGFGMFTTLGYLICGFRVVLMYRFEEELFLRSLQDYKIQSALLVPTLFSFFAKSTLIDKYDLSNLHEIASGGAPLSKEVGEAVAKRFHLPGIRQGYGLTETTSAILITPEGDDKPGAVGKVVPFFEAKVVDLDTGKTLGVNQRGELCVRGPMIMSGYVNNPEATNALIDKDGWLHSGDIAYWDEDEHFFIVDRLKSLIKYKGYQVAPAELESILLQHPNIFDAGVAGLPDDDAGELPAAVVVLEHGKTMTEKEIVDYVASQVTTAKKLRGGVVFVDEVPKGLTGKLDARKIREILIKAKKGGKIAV

Row | SMILES | Luciferase Assay % Lum [1, 9] | Luciferase Assay Z-score [1, 10] | Split Luciferase Assay % Lum Set 1 [2, 11] | Split Luciferase Assay %Lum Set 2 [2, 12] | Split Luciferase Assay Z-score Set 1 [2, 13] | Split Luciferase Assay Z-score Set 2 [2, 14] | Split Luciferase Assay %Lum Avg [2, 15] | Toxicity Assay % Fluor (Clone V cells; human, 16 h, 30 µM) | Toxicity Assay Z-score (Clone V cells; human, 16 h, 30 µM) | also measured
1 | N#Cc1c(O)c2c(-c3ccc(-c4ccccc4O)cc3)csc2[nH]c1=O [Compound A-769662] | – | – | – | – | – | – | – | – | – | Luciferase Assay % Lum (full-length luciferase counter-screen) [1, 3]: 79.85%; Luciferase Assay Z-score (full-length luciferase counter-screen) [1, 3]: -2.58; Split Luciferase Assay Z-score Set 1 [2, 4]: 1.52; Split Luciferase Assay % Lum Set 1 [2, 5]: 118.82%; Split Luciferase Assay Z-score Set 2 [2, 6]: 1.01; Split Luciferase Assay %Lum Set 2 [2, 7]: 112.35%; Split Luciferase Assay %Lum Avg [2, 8]: 115.59%; Toxicity Assay % Fluor (CTB cell viability fluorescence) (Clone V cells): 107.48%; Toxicity Assay Z-score (CTB cell viability) (Clone V cells): 1.05
2 | Cc1nc2sccn2c(=O)c1CCN1CCC(=C(c2ccccc2)c2ccc(F)cc2)CC1 [Compound R59022] | – | – | – | – | – | – | – | – | – | Luciferase Assay % Lum (full-length luciferase counter-screen) [1, 3]: 55.65%; Luciferase Assay Z-score (full-length luciferase counter-screen) [1, 3]: -5.68; Split Luciferase Assay Z-score Set 1 [2, 4]: -1.91; Split Luciferase Assay % Lum Set 1 [2, 5]: 76.42%; Split Luciferase Assay Z-score Set 2 [2, 6]: -0.10; Split Luciferase Assay %Lum Set 2 [2, 7]: 98.83%; Split Luciferase Assay %Lum Avg [2, 8]: 87.63%; Toxicity Assay % Fluor (CTB cell viability fluorescence) (Clone V cells): 113.72%; Toxicity Assay Z-score (CTB cell viability) (Clone V cells): 1.92
3 | C[C@@H](N)[C@H]1CC[C@H](C(=O)Nc2ccncc2)CC1 [Compound Y-27632] | 95.76% | -0.54 | 76.42% | 74.90% | -1.91 | -2.04 | 75.66% | – | – | Toxicity Assay % Fluor (Clone V cells): 96.21%; Toxicity Assay Z-score (Clone V cells): -0.53
4 | O=P1(N(CCCl)CCCl)NCCCO1 (stereo not drawn) [Cyclophosphamide] | – | – | – | – | – | – | – | – | – | Luciferase Assay % Lum [1]: 101.62%; Luciferase Assay Z-score [1]: 0.21; Split Luciferase Assay % Lum Set 1 [2]: 107.95%; Split Luciferase Assay %Lum Avg [2]: 112.75%; Split Luciferase Assay %Lum Set 2 [2]: 117.56%; Split Luciferase Assay Z-score Set 1 [2]: 0.64; Split Luciferase Assay Z-score Set 2 [2]: 1.43; Toxicity Assay % Fluor (Clone V cells; human): 98.87%; Toxicity Assay Z-score (Clone V cells; human): -0.16
5 | Cc1nc(Nc2ncc(C(=O)Nc3c(C)cccc3Cl)s2)cc(N2CCN(CCO)CC2)n1 [DASATINIB] | 82.88% | -2.19 | 38.37% | 65.54% | -4.98 | -2.80 | 51.96% | 83.83% | -2.26 | –
6 | COc1cc2c(cc1OC)[C@@H]1C(=O)c3ccc4c(c3O[C@@H]1CO2)C=CC(C)(C)O4 [DEGUELIN] | 66.30% | -4.32 | 27.50% | 26.01% | -5.86 | -6.02 | 26.76% | – | – | Toxicity Assay % Fluor (Clone V cells; human): 100.58%; Toxicity Assay Z-score (Clone V cells; human): 0.08
7 | Cc1nc2c(c(=O)[nH]1)CSCC2 [DR 2313] | – | – | – | – | – | – | – | – | – | Luciferase Assay % Lum (full-length luciferase counter-screen) [1, 3]: 93.50%; Luciferase Assay Z-score (full-length luciferase counter-screen) [1, 3]: -0.83; Split Luciferase Assay Z-score Set 1 [2, 4]: -1.11; Split Luciferase Assay % Lum Set 1 [2, 5]: 86.21%; Split Luciferase Assay Z-score Set 2 [2, 6]: -0.26; Split Luciferase Assay %Lum Set 2 [2, 7]: 96.75%; Split Luciferase Assay %Lum Avg [2, 8]: 91.48%; Toxicity Assay % Fluor (CTB cell viability fluorescence) (Clone V cells): 106.28%; Toxicity Assay Z-score (CTB cell viability) (Clone V cells): 0.88
8 | CC(C)(C)c1nc(-c2cccc(NS(=O)(=O)c3c(F)cccc3F)c2F)c(-c2ccnc(N)n2)s1.CS(=O)(=O)O [Dabrafenib mesylate] | 100.50% | 0.06 | 126.43% | 121.72% | 2.14 | 1.77 | 124.07% | – | – | Toxicity Assay % Fluor (Clone V cells): 93.50%; Toxicity Assay Z-score (Clone V cells): -0.91
9 | Cc1c2oc3c(C)ccc(C(=O)N[C@@H]4C(=O)N[C@H](C(C)C)C(=O)N5CCC[C@H]5C(=O)N(C)CC(=O)N(C)[C@@H](C(C)C)C(=O)O[C@@H]4C)c3nc-2c(C(=O)N[C@@H]2C(=O)N[C@H](C(C)C)C(=O)N3CCC[C@H]3C(=O)N(C)CC(=O)N(C)[C@@H](C(C)C)C(=O)O[C@@H]2C)c(N)c1=O [Dactinomycin] (I: T[dV]P[Sar][NMeV] / II: T[dV]P[Sar][NMeV]; ester I:1-I:C, II:1-II:C; linker I:N-II:N via Actinocin(9to1)) | 95.88% | -0.53 | – | 65.54% | – | -2.80 | 62.83% | – | – | Toxicity Assay % Fluor (Clone V cells; human): 93.25%; Toxicity Assay Z-score (Clone V cells; human): -0.94
10 | Cc1nc(Nc2ncc(C(=O)Nc3c(C)cccc3Cl)s2)cc(N2CCN(CCO)CC2)n1 [Dasatinib] | 84.22% | -2.02 | 92.73% | 79.06% | -0.59 | -1.70 | 85.90% | – | – | Toxicity Assay % Fluor (Clone V cells): 94.47%; Toxicity Assay Z-score (Clone V cells): -0.77
11 | COc1cccc2c1C(=O)c1c(O)c3c(c(O)c1C2=O)C[C@@](O)(C(C)=O)C[C@@H]3O[C@H]1C[C@H](N)[C@H](O)[C@H](C)O1 [Daunorubicin hydrochloride] | 65.12% | -4.47 | 48.16% | 61.38% | -4.19 | -3.14 | 54.77% | 81.24% | -2.62 | –
12 | COc1cccc2c1C(=O)c1c(O)c3c(c(O)c1C2=O)C[C@@](O)(C(=O)CO)C[C@@H]3O[C@H]1C[C@H](N)[C@H](O)[C@H](C)O1 [Doxorubicin hydrochloride] | 78.74% | – | 49.25% | 58.26% | -4.10 | -3.40 | 53.75% | 94.10% | -0.82 | –
13 | CN(NC(=O)CC(=O)NN(C)C(=S)c1ccccc1)C(=S)c1ccccc1 [ELESCLOMOL] | 99.01% | -0.13 | 30.77% | 35.37% | -5.60 | -5.26 | 33.07% | 74.49% | -3.57 | –
14 | Cn1cc(C2=C(c3cn(C4CCN(Cc5ccccn5)CC4)c4ccccc34)C(=O)NC2=O)c2ccccc21 [ENZASTAURIN] | 90.70% | -1.19 | 84.03% | 96.75% | -1.29 | -0.26 | 90.39% | 95.12% | -0.68 | –
15 | CNC(=O)c1ccc(N2C(=S)N(c3ccc(C#N)c(C(F)(F)F)c3)C(=O)C2(C)C)cc1F [Enzalutamide] | – | – | 94.90% | 98.83% | -0.41 | -0.10 | 96.87% | 90.81% | -1.28 | Luciferase Assay % Lum [1]: 80.08%; Luciferase Assay Z-score [1]: -2.55
16 | COc1cccc2c1C(=O)c1c(O)c3c(c(O)c1C2=O)C[C@@](O)(C(=O)CO)C[C@@H]3O[C@H]1C[C@H](N)[C@@H](O)[C@H](C)O1 [Epirubicin hydrochloride] | 76.16% | -3.05 | 44.90% | 45.77% | -4.45 | -4.41 | 45.34% | 86.21% | -1.93 | –
17 | C[C@]12CC[C@@H]3c4ccc(OC(=O)N(CCCl)CCCl)cc4CC[C@H]3[C@@H]1CC[C@@H]2OP(=O)(O)O [Estramustine phosphate sodium] | – | – | – | – | – | – | – | – | – | Luciferase Assay % Lum [1]: 86.35%; Luciferase Assay Z-score [1]: -1.75; Split Luciferase Assay % Lum Set 1 [2]: 26.42%; Split Luciferase Assay %Lum Avg [2]: 32.45%; Split Luciferase Assay %Lum Set 2 [2]: 38.49%; Split Luciferase Assay Z-score Set 1 [2]: -5.95; Split Luciferase Assay Z-score Set 2 [2]: -5.00; Toxicity Assay % Fluor (Clone V cells; human): 92.97%; Toxicity Assay Z-score (Clone V cells; human): -0.98
